Assay results as given in patent US20120004314A1, “ANTIMICROBIAL COMPOSITION” (AMBRIA DERMATOLOGY AB, priority 2008, published 2012).
Marks after values point to notes of the source that are not given here.

How the values were obtained:
Assay type in all cases: cell-based
[1] = test system: P. acnes; test: MIC on blood agar plates against P. acnes; parameters: key: +++: Same growth as on the control plate without any chlorhexidine and/or pentane-1,5-diol; ++: Reduced growth compared to the control; +: Very poor growth; −: No growth
Description: The minimal inhibitory concentration (MIC) of pentane-1,5-diol and chlorhexidine against P. acnes was determined using bacteria concentrations of 6×10^6 (20 μl applicated onto blood agar plates). The results are depicted below in table 4 and 5.
The minimal inhibitory concentration (MIC) of pentane-1,5-diol combined with chlorhexidine against P. acnes was determined using bacteria concentrations of 6×10^6 (20 μl applicated onto blood agar plates).

[2] = test system: S. aureus; test: MIC on DST-agar plates against S. aureus; parameters: key: +++: Same growth as on the control plate without any chlorhexidine and/or pentane-1,5-diol; ++: Reduced growth compared to the control; +: Very poor growth; −: No growth
Description: The minimal inhibitory concentration (MIC) of pentane-1,5-diol and chlorhexidine against S. aureus was determined using bacteria concentrations of 6×10^6 (20 μl applicated onto DST-agar plates). The results are depicted below in table 1 and 2.
The minimal inhibitory concentration (MIC) of pentane-1,5-diol combined with chlorhexidine against S. aureus was determined using bacteria concentrations of 6×10^6 (20 μl applicated onto DST-agar plates).

[3] = test system: S. aureus (CCUG 17621); test: MIC by agar dilution assay, S. aureus
Description: (§1) Chlorhexidine digluconate (CHG) solution, 20% water, […]-25ML, (Sigma, St. Louis, USA) and PD, (BASF AG, Ludwigshafen, Germany) were used in the study and the following reference strains were tested; C. albicans (CCUG 5594), S. aureus (CCUG 17621) and P. acnes (CCUG 1794). Minimum inhibitory concentration of CHG and pentane-1,5-diol (PD) were determined by agar dilution assay. A series of dilutions of each compound were prepared in blood agar medium for P. acnes, and in Diagnostic Sensitivity Test (DST) agar (Oxoid, Basingstoke, UK) for C. albicans and S. aureus. Dilution series with each agent were made with freshly prepared agar at 48-50° C. Final concentration ranges were as follows: CHG solution, 0.00001 to 1% (w/v) and PD, 1-30% (v/v). The prepared plates were solidified and used immediately. For each organism an inoculum was prepared by growing organisms on blood agar. Colonies were suspended in phosphate-buffered saline (PBS) and suspensions were adjusted to approximately 6×10^6 CFU/ml for C. albicans and P. acnes and 6×10^5 CFU/mL for S. aureus. The plates were inoculated with 20 μl spots and incubated for one day for C. albicans and S. aureus and three days for P. acnes. MICs were then determined as the lowest concentration of the compound inhibiting growth of the isolates. First the MICs of CHG and PD, respectively, were determined for each micro-organism. Then, a range of combined CHG and PD concentrations were tested on each micro-organism to determine if there was synergistic activity. The definition of synergistic effect is: “An effect that is greater than the sum of the effects of the two drugs, such as the equation: 1+1 . . . ”. Each isolate was tested twice.

[4] = test system: S. pyogenes A CCUG 4208; test: MIC on blood agar plates against S. pyogenes A CCUG 4208; parameters: key: +++: Same growth as on the control plate without any chlorhexidine and/or pentane-1,5-diol; ++: Reduced growth compared to the control; +: Very poor growth; −: No growth
Description: The minimal inhibitory concentration (MIC) of pentane-1,5-diol combined with chlorhexidine against S. pyogenes A CCUG 4208 was determined using bacteria concentrations of 6×10^7 (20 μl applicated onto blood agar plates). The results are depicted below in table 7 and 8.

[5] = test system: P. acnes (CCUG 1794); test: MIC by agar dilution assay, P. acnes
Description: as §1

[6] = test system: C. albicans (CCUG 5594); test: MIC by agar dilution assay, C. albicans
Description: as §1

[7] = S. aureus CCUG17621, agar dilution
[8] = P. acnes CCUG1794, agar dilution
[9] = C. albicans CCUG5594, agar dilution
[10] = growth grade at pentane-1,5-diol 5 wt %
[11] = growth grade at pentane-1,5-diol 6 wt %
[12] = growth grade at pentane-1,5-diol 7 wt %
[13] = growth grade at pentane-1,5-diol 10 wt %
[14] = growth grade at pentane-1,5-diol 20 wt %
[15] = growth grade at pentane-1,5-diol 30 wt %

[H]/N=C(\N/C(=N/[H])NCCCCCCNC(=N)NC(=N)Nc1ccc(Cl)cc1)Nc1ccc(Cl)cc1 [Chlorhexidine, chlorhexidine digluconate]
0.00005 w/v %: MIC combined CHG ([5]; P. acnes CCUG1794, CHG in combination with PD 3 v/v %) | MIC combined CHG ([6]; C. albicans CCUG5594, CHG in combination with PD 3 v/v %)
+++: growth grade ([1]; growth grade at chlorhexidine 0.00001 wt %) | bacterial growth grade ([2]; S. aureus, growth grade at chlorhexidine 0.00001 wt %) | growth grade ([4]; growth grade at chlorhexidine digluconate 0.00001 %) | growth grade ([4]; growth grade at chlorhexidine digluconate 0.00005 %)
+: growth grade ([4]; growth grade at chlorhexidine digluconate 0.0001 %)
1×10^−4: factor by which MIC of CHG was lower than PD ([6]; C. albicans)
0.0005 w/v %: MIC alone CHG [6, 9]
2: Ratio (alone/combined) CHG/CHG + PD ([5]; P. acnes CCUG1794, reduction of the MIC of CHG)
0.00001 w/v %: MIC combined CHG ([3]; S. aureus CCUG17621, CHG in combination with PD 8 v/v %)
9×10^−5: factor by which MIC of CHG was lower than PD ([5]; P. acnes)
10: Ratio (alone/combined) CHG/CHG + PD ([3]; S. aureus CCUG17621, reduction of the MIC of CHG) | Ratio (alone/combined) CHG/CHG + PD ([6]; C. albicans CCUG5594, reduction of the MIC of CHG)
++: growth grade ([1]; growth grade at chlorhexidine 0.00005 wt %) | bacterial growth grade ([2]; S. aureus, growth grade at chlorhexidine 0.00005 wt %)
−: growth grade ([1]; growth grade at chlorhexidine 0.0001 wt %) | growth grade ([1]; growth grade at chlorhexidine 0.0005 wt %) | growth grade ([1]; growth grade at chlorhexidine 0.001 wt %) | growth grade ([1]; growth grade at chlorhexidine 0.005 wt %) | growth grade ([1]; growth grade at chlorhexidine 0.01 wt %) | growth grade ([1]; growth grade at chlorhexidine 0.02 wt %) | growth grade ([1]; growth grade at chlorhexidine 0.05 wt %) | growth grade ([1]; growth grade at chlorhexidine 0.1 wt %) | growth grade ([1]; growth grade at chlorhexidine 0.5 wt %) | growth grade ([1]; growth grade at chlorhexidine 1 wt %) | bacterial growth grade ([2]; S. aureus, growth grade at chlorhexidine 0.0001 wt %) | bacterial growth grade ([2]; S. aureus, growth grade at chlorhexidine 0.0005 wt %) | bacterial growth grade ([2]; S. aureus, growth grade at chlorhexidine 0.001 wt %) | bacterial growth grade ([2]; S. aureus, growth grade at chlorhexidine 0.005 wt %) | bacterial growth grade ([2]; S. aureus, growth grade at chlorhexidine 0.01 wt %) | bacterial growth grade ([2]; S. aureus, growth grade at chlorhexidine 0.02 wt %) | bacterial growth grade ([2]; S. aureus, growth grade at chlorhexidine 0.05 wt %) | bacterial growth grade ([2]; S. aureus, growth grade at chlorhexidine 0.1 wt %) | bacterial growth grade ([2]; S. aureus, growth grade at chlorhexidine 0.5 wt %) | bacterial growth grade ([2]; S. aureus, growth grade at chlorhexidine 1 wt %) | growth grade ([4]; growth grade at chlorhexidine digluconate 0.0005 %) | growth grade ([4]; growth grade at chlorhexidine digluconate 0.001 %) | growth grade ([4]; growth grade at chlorhexidine digluconate 0.005 %) | growth grade ([4]; growth grade at chlorhexidine digluconate 0.01 %) | growth grade ([4]; growth grade at chlorhexidine digluconate 0.05 %) | growth grade ([4]; growth grade at chlorhexidine digluconate 0.1 %) | growth grade ([4]; growth grade at chlorhexidine digluconate 0.5 %)
0.0001 w/v %: MIC alone CHG [3, 7] | MIC alone CHG [5, 8]
6×10^−5: factor by which MIC of CHG was lower than PD ([3]; S. aureus)

OCCCCCO [Pentane-1,5-diol, pentane-1,5-diol]
3 v/v %: MIC combined PD ([5]; P. acnes CCUG1794, PD in combination with CHG 0.00005 w/v %) | MIC combined PD ([6]; C. albicans CCUG5594, PD in combination with CHG 0.00005 w/v %)
6 v/v %: MIC alone PD [5, 8]
8 v/v %: MIC combined PD ([3]; S. aureus CCUG17621, PD in combination with CHG 0.00001 w/v %)
+: growth grade [1, 10] | bacterial growth grade ([2]; growth grade at pentane-1,5-diol 8 wt %) | growth grade ([4]; growth grade at 1,5-pentanediol 6 %)
1: Ratio (alone/combined) PD/PD + CHG ([3]; S. aureus CCUG17621, reduction of the MIC of PD)
2: Ratio (alone/combined) PD/PD + CHG ([5]; P. acnes CCUG1794, reduction of the MIC of PD) | Ratio (alone/combined) PD/PD + CHG ([6]; C. albicans CCUG5594, reduction of the MIC of PD)
++: growth grade ([1]; growth grade at pentane-1,5-diol 3 wt %) | bacterial growth grade [2, 11] | bacterial growth grade [2, 12] | growth grade ([4]; growth grade at 1,5-pentanediol 4 %)
9 v/v %: MIC alone PD [3, 7]
−: growth grade [1, 11] | growth grade [1, 12] | growth grade [1, 13] | growth grade [1, 14] | growth grade [1, 15] | bacterial growth grade ([2]; growth grade at pentane-1,5-diol 9 wt %) | bacterial growth grade [2, 13] | bacterial growth grade [2, 14] | bacterial growth grade [2, 15] | growth grade ([4]; growth grade at 1,5-pentanediol 7 %) | growth grade ([4]; growth grade at 1,5-pentanediol 8 %) | growth grade ([4]; growth grade at 1,5-pentanediol 9 %) | growth grade ([4]; growth grade at 1,5-pentanediol 10 %) | growth grade ([4]; growth grade at 1,5-pentanediol 15 %)
5 v/v %: MIC alone PD [6, 9]
+++: growth grade ([1]; growth grade at pentane-1,5-diol 1 wt %) | growth grade ([4]; growth grade at 1,5-pentanediol 2 %)
+++^a: bacterial growth grade [2, 10]
